This is an account of results in patent publication US20080286355A1, “Protease Inhibitors For the Treatment of Digestive Pathologies” (priority 2004, published 2008).

Common to all, as to type: in vivo
Assay [1] deals with male Wistar rats. Briefly: Colon mucosa permeability to 51Cr-EDTA, radioactivity in 24-hour urine of rats. The settings on record: rat; SLIGRL 0.05, 0.2 and 0.5 mg/rat into colon lumen at t=0; 10-hour intracolonic 51Cr-EDTA infusion; vs solvent. How it is done:
Six groups of eight male Wistar rats (200-250 g) were used for this study. The animals were fitted with an indwelling intracolonic catheter in the proximal colon (3 cm from the caeco-colic junction). In these experiments, four groups of rats received a 10-hour intracolonic infusion of ^51Cr-EDTA ([…]). The animals were placed in separate cages and total 24-hour urine was collected. Radioactivity was measured in the urine to evaluate the permeability of the colon mucosa to ^51Cr-EDTA. Increasing doses of the PAR-2 activator peptide (SLIGRL) were injected in the colon lumen (groups 2, 3 and 4) at time t=0 (start of ^51Cr-EDTA infusion) at a dose of 0.05, 0.2 and 0.5 mg/rat. Group 1 received the solvent.

Assay [2] concerns male Swiss mice. Briefly: Paracellular permeability in mouse colon (51Cr-EDTA) during intracolonic infusion of protease inhibitors. The settings on record: 5-hour intracolonic infusion 250 μl/h, 51Cr-EDTA from hours 3 to 5. How it is done: Six groups of ten male Swiss mice (25-30 g) were used for this study. The animals received a 5-hour intracolonic infusion (250 μl/h) of the different protease inhibitor solutions through a catheter inserted through the rectum and fixed at the base of the tail; ^51Cr-EDTA was added to the infusion from hours 3 to 5 (FIG. 2). At t=5 hours, the animals were sacrificed, the colons removed, and total radioactivity remaining in the body was taken as an indicator of paracellular permeability.

Assay [3] relates to male Wistar rats. Briefly: Rectal sensitivity to distention (abdominal contractions, EMG) after intracolonic trypsin. The settings on record: rat, distention at t=10 h, distention volumes 0.8, 1.2 and 1.6 ml, vs solvent control. How it is done:
At time t=0, the animals received an intracolonic infusion of trypsin ([…]), a specific PAR-2 receptor activator at the dose of 20 units (group 1) or solvent (group 2). At time t=10 h after the intracolonic trypsin infusion, the animals were subjected to the rectal distention protocol.

Assay [4] concerns male Swiss mice. Briefly: Colon paracellular permeability in mice after trypsin, supernatant of colon contents and antibiotic cocktail. The settings on record: mouse, intracolonic trypsin 50 μL. The protocol:
Groups of ten male Swiss mice (Janvier-France) weighing 25-30 g were used for this study. In baseline conditions, the effects on colon paracellular permeability of intracolonic infusion of trypsin (50 μL, 600 U) and of supernatant of colon contents taken from control mice and given by a 3-hour intracolonic infusion (250 μL/h) on one day (D1) or on two consecutive days (D2) were evaluated. The same infusions were then repeated after 12 days of treatment with oral an antibiotic cocktail (neomycin 2 mg/kg/day+ampicillin 1 mg/kg/day).

Regarding SLIGRL, the “permeability to 51Cr-EDTA (recovery in 24-hour urine)” value in assay [1] is “dose-dependent increase”. As to aprotinin, in assay [2], the “paracellular permeability (total radioactivity remaining in the body)” value is on record as “significantly lower”. For the compound trypsin, the “abdominal response to rectal distention” value in assay [3] is “significant decrease”. Also, the “increase in colon permeability after the antibiotic treatment” value in assay [4] (600 U after 12 days of antibiotic cocktail) is “disappeared”. Besides, the “colon paracellular permeability, baseline conditions” value in assay [4] (600 U, normal mice) is on record as “increase”. With `CNC(=O)[C@H](Cc1c[nH]c2ccccc12)NC(=O)[C@@H](CC(=O)NO)CC(C)C` [galardin], the “paracellular permeability (total radioactivity remaining in the body)” value in assay [2] is “significantly lower”.
